Read-outs that look alike come from different tables or passages of the source. Marks after values point to notes of the source that are not given here.
Experiments:
[1] = tested on: P. falciparum Dd2; assay: tritiated hypoxanthine incorporation growth inhibition assay; assay type: cell-based; conditions: for IC50: mean value
Experimental: (§1) The protocols are described in the experimental section. Two protocols to measure the growth inhibition were used: the tritiated hypoxanthine incorporation method and the SYBRgreen method. This was due to the fact that the radioactive assay was abandoned in the laboratory due to cost issues related to radioactive waste disposal. […] All data are mean values from one to four independent experiments, each consisting of eight drug concentrations in duplicate.
The IC50 values were determined using standard in vitro proliferation assays. […] The amount of radioactivity in precipitable material served as an index of parasite proliferation.

[2] = tested on: human lung MRC-5 fibroblasts; assay: cytotoxicity, Alamar Blue (resazurin) assay; conditions: human MRC-5 fibroblasts, 3 days incubation
Experimental: All compounds were tested for cytotoxicity on human lung MRC-5 fibroblasts using the Alamar Blue assay (Table 1 and Table 2).
MRC-5SV2 cells are cultured in Earls MEM +5% FCSi. […] After 3 days incubation, cell viability is assessed fluorimetrically after addition of resazurin and fluorescence is measured (λex 550 nm, λem 590 nm). The results are expressed as % reduction in cell growth/viability compared to untreated control wells and CC50 is determined.

[3] = tested on: P. falciparum Dd2; assay: SYBRgreen growth inhibition assay; assay type: cell-based; conditions: read-out: IC50 (nM) ± SD (n)
Experimental: as §1
Parasite replication was assessed by fluorescent SYBRgreen staining of parasitic DNA [60] as previously described. IC50 values were calculated using SigmaPlot.

[4] = tested on: P. falciparum Dd2; design: method as in PMID 21682307; conditions: P. falciparum Dd2, tritiated hypoxanthine incorporation method, previously reported values; cited from earlier work
[5] = tested on: human lung MRC-5 fibroblasts; design: method as in PMID 21682307; conditions: human MRC-5 fibroblasts, previously reported values; cited from earlier work
[6] = tested on: P. berghei strain ANKA; design: method as in PMID 21682307; conditions: P. berghei strain ANKA-infected CD1 mice, day 4; cited from earlier work
[7] = absorption spectrophotometric titrations versus pH (pKa); conditions: for [LH+]pH5/[LH+]pH7.4: ratio of protonated species at pH 5 and 7.4, I = 0.1 M NaClO4, T = 25 °C; for pH of precipitation during the titration: H2O/DMSO, 91/1 v/v as printed, pKa could not be accurately evaluated
Excerpt: The HClO4 and NaOH solutions were freshly prepared just before use and titrated with sodium tetraborate decahydrate (B4Na2O7·10H2O, puriss, p.a, Fluka) and potassium hydrogen phthalate (C8H5KO3, Fluka, puriss, p.a.), respectively, using methyl orange (RAL) and phenolphthalein (Prolabo, purum) as the indicators. The GLEE program was applied for the glass electrode calibration (standard electrode potential E0/mV and slope of the electrode/mV pH^−1) and to check carbonate levels of the NaOH solutions used (<5%). The cell was thermostated at 25.0 ± 0.2 °C by the flow of a Lauda E200 thermostat. A stream of argon, pre-saturated with water vapour, was passed over the surface of the solution.
The spectrophotometric data were analyzed with the Specfit program which adjusts the absorptivities and the stability constants of the species formed at equilibrium. Specfit uses factor analysis to reduce the absorbance matrix and to extract the eigenvalues prior to the multiwavelength fit of the reduced data set according to the Marquardt algorithm.

[8] = tested on: P. berghei (ANKA-strain); assay: in vivo antimalarial activity in P. berghei ANKA-infected Swiss mice; design: species or system Plasmodium berghei; conditions: for % Parasitaemia (dpi) 4 / % Suppression (dpi) 4: day 4 post infection; for % Parasitaemia (dpi) 7 / % Suppression (dpi) 7: day 7 post infection; for % Parasitaemia (dpi) 11 / % Suppression (dpi) 11: day 11 post infection
Experimental: Swiss mice (female—BW ~ 25 g; Janvier France, Le Genest Saint Isle, France) were allocated randomly to five groups of four animals each. Drinking water and food were available ad libitum throughout the experiment.
P. berghei (ANKA-strain) is maintained in the laboratory by weekly mechanical subpassage in Swiss mice. The infection inoculum was prepared by taking heparinized blood was collected from a clinically ill donor mouse (approximately 20% parasitaemia) and diluted in PBS to obtain an infection inoculum of 0.15 mL with about 4 × 10^8 infected erythrocytes. The infection-inoculum was given intraperitoneally. The untreated infected controls developed severe malaria with most animals showing severe clinical signs on day 4. […]. […]

[9] = observation of precipitation in DMSO; assay type: physicochemical; conditions: table footnote *
[10] = biological target: Fe^III-heme; conditions: read-out: KD of the 1:1 π-π complex with Fe^III-heme; pH 7.5; cited from earlier work
[11] = in 0.4 M KCl; cited from earlier work
[12] = Plasmodium falciparum, DD2, P. falciparum Dd2, tritiated hypoxanthine incorporation method
[13] = P. falciparum Dd2, SYBRgreen method, 72 h
[14] = Plasmodium falciparum, DD2, 72 h
[15] = Plasmodium falciparum, P. falciparum Dd2, SYBRgreen method, 72 h
[16] = 0.1 M NaClO4 in water/DMSO (91:9 v/v)
[17] = P. falciparum Dd2, tritiated hypoxanthine incorporation method
[18] = 50 mg/kg ip for 5 days, Swiss mice
[19] = 10 mg/kg ip for 5 days, Swiss mice
[20] = 10 mg/kg ip for 5 days, Swiss mice, day 14 post infection
[21] = 10 mg/kg ip for 5 days, infected Swiss mice

CC1=C(Cc2ccc(-c3ccc(C(C)(C)C)cc3)cc2)C(=O)c2ccccc2C1=O [Compound 27, 2-(4′-tert-Butyl-biphenyl-4-ylmethyl)-3-methyl-[1,4]naphthoquinone]
IC50 [1, 12]: 0.485 µM | Tox/MRC-5 [2]: >64.0 µM | melting point: 112 to 114 °C

2-Methyl-3-(4-bromo-benzyl)-4a,8a-dihydro-[1,4]naphthoquinone [Compound 25c]
IC50 [3, 13]: 82 ± 2 nM | IC50 [4]: 0.046 ± 0.004 µM | Tox/MRC-5 [5]: >32.0 µM | Tox/MRC-5 (µM) [5]: >32.0 ^b µM | reduction of parasitemia [6]: 35.8%

CC(=O)Nc1ccc(CC2=C(C)C(=O)c3ccccc3C2=O)cc1 [Compound 9, N-(4-((3-Methyl-1,4-dioxo-1,4-dihydronaphthalen-2-yl)methyl)phenyl)acetamide]
IC50 [3, 14]: 411 ± 220 nM

CC1=C(Cc2cccc(N(C)C)c2)C(=O)c2ccccc2C1=O [Compound 18, 2-(3-(Dimethylamino)benzyl)-3-methylnaphthalene-1,4-dione]
IC50 [3, 15]: 386 ± 151 nM | Tox/MRC-5 [2]: >64.0 µM | pKa [7, 16]: 4.6 ± 0.04 | [LH+]pH5/[LH+]pH7.4 ([7]; Water/DMSO (0.91/0.09 v/v)): 179.9

CC1=C(Cc2ccc(-c3ccc(N(C)C)cc3)cc2)C(=O)c2ccccc2C1=O [Compound 26, 2-(4′-Dimethylamino-biphenyl-4-ylmethyl)-3-methyl-[1,4]naphthoquinone]
fold higher IC50 value than plasmodione ([1]; P. falciparum Dd2, hypoxanthine incorporation test): 10 fold | IC50 [1, 17]: 0.223 µM | IC50 [1, 12]: 0.229 µM | Tox/MRC-5 [2]: >64.0 µM | melting point: 170 to 171 °C

CC(=O)Nc1cccc(CC2=C(C)C(=O)c3ccccc3C2=O)c1 [Compound 16, N-(3-((3-Methyl-1,4-dioxo-1,4-dihydronaphthalen-2-yl)methyl)phenyl)acetamide]
IC50 [3, 14]: 310 ± 134 nM

2-(4′-nitro-Butyl-biphenyl-4-ylmethyl)-3-methyl-[1,4]naphthoquinone [Compound 28]
IC50 [1, 17]: 0.474 µM | Tox/MRC-5 [2]: >64.0 µM

CCN(CC)c1ccc(CC2=C(C)C(=O)c3ccccc3C2=O)cc1 [Compound 11, 2-(4-(Diethylamino)benzyl)-3-methylnaphthalene-1,4-dione]
IC50 [3, 15]: 2060 ± 1070 nM | Tox/MRC-5 [2]: 29.3 µM | pKa [7, 16]: 5.07 ± 0.06 | [LH+]pH5/[LH+]pH7.4 ([7]; Water/DMSO (0.91/0.09 v/v)): 112.0

CC1=C(Cc2ccc(NC(=O)OC(C)(C)C)cc2)C(=O)c2ccccc2C1=O [Compound 6, tert-Butyl(4-((3-Methyl-1,4-dioxo-1,4-dihydronaphthalen-2-yl)methyl)phenyl) carbamate]
IC50 [1, 17]: 0.0425 µM | IC50 [1, 12]: 0.042 µM | IC50 [3, 15]: 109 ± 46 nM | Tox/MRC-5 [2]: >64.0 µM | % Parasitaemia (dpi) 4 [8, 18]: 9.4% | % Suppression (dpi) 4 [8, 18]: 75.5% | % Parasitaemia (dpi) 7 [8, 18]: 7.7% | % Suppression (dpi) 7 [8, 18]: 81.8% | % Parasitaemia (dpi) 11 [8, 18]: 41.9% | % Suppression (dpi) 11 [8, 18]: 38.1% | % Parasitaemia (dpi) 14 ([8]; 50 mg/kg ip for 5 days, Swiss mice, day 14 post infection): 69.3% | Health Status ([8]; 50 mg/kg ip for 5 days, infected Swiss mice): From day 4 p.i. onwards: poor appearance (intermittent), one animal died before day 14 p.i.

CC1=C(Cc2cccc(N)c2)C(=O)c2ccccc2C1=O [Compound 17, 2-(3-Aminobenzyl)-3-methylnaphthalene-1,4-dione]
IC50 [3, 15]: 1200 ± 1650 nM | Tox/MRC-5 [2]: >64.0 µM | [LH+]pH5/[LH+]pH7.4 ([7]; Water): 209.6 | pKa ([7]; water with 0.1 M NaClO4): 4.3 ± 0.02 | behaviour in DMSO [9]: Precipitates in DMSO

CCN(CC)CCCC(C)Nc1ccnc2cc(Cl)ccc12 (centres unmarked) [Chloroquine, chloroquine]
IC50 [3, 14]: 99 ± 19 nM | % Parasitaemia (dpi) 4 [8, 19]: 5.2% | % Suppression (dpi) 4 [8, 19]: 86.3% | % Parasitaemia (dpi) 7 [8, 19]: 9.8% | % Suppression (dpi) 7 [8, 19]: 76.8% | % Parasitaemia (dpi) 11 [8, 19]: 32.1% | % Suppression (dpi) 11 [8, 19]: 52.7% | % Parasitaemia (dpi) 14 [8, 20]: 56.2% | % Suppression (dpi) 14 [8, 20]: 9.2% | Health Status [8, 21]: From day 4 p.i. onwards: poor appearance, tremor, body weight loss, rough hair, one animal died before day 14 p.i. | survival until day 7 [8, 21]: 100% | IC50 [4]: 0.11 ± 0.02 µM | Tox/MRC-5 [5]: 51.5 µM | Kd [10]: 2 to 15 µM

OCCN(CCO)c1ccccc1 [N-phenyldiethanolamine]
pKa [11]: 4.13

para-N-ethyl-3-benzylmenadione [Compound 10]
IC50 [3, 13]: 418 ± 166 nM | Tox/MRC-5 [2]: >64.0 µM | pKa ± σ [7]: 5–5.5 | pH of precipitation during the titration [7]: ~ 5

CCN(CC)c1cccc(CC2=C(C)C(=O)c3ccccc3C2=O)c1 [Compound 19, 2-(3-(Diethylamino)benzyl)-3-methylnaphthalene-1,4-dione]
IC50 [3, 15]: 236 ± 97 nM | Tox/MRC-5 [2]: >64.0 µM | pKa [7, 16]: 5 to 5.5 | pH of precipitation during the titration [7]: ~ 5

CC1=C(Cc2ccc(N)cc2)C(=O)c2ccccc2C1=O [Compound 7, 2-(4-Aminobenzyl)-3-methylnaphthalene-1,4-dione]
IC50 [3, 15]: 303 ± 138 nM | Tox/MRC-5 [2]: >64.0 µM | [LH+]pH5/[LH+]pH7.4 ([7]; Water): 162.5 | pKa ([7]; water with 0.1 M NaClO4): 4.74 ± 0.05

2-Methyl-3-(2-bromo-benzyl)-4a,8a-dihydro-[1,4]naphthoquinone [Compound 25a]
IC50 [3, 13]: 86.3 nM | Tox/MRC-5 [2]: >64.0 µM

CC1=C(Cc2ccc(N(C)C)cc2)C(=O)c2ccccc2C1=O [Compound 3, 2-(4-(Dimethylamino)benzyl)-3-methylnaphthalene-1,4-dione]
IC50 [3, 15]: 567 ± 217 nM | Tox/MRC-5 [2]: >64.0 µM | pKa [7, 16]: 4.87 ± 0.03 | [LH+]pH5/[LH+]pH7.4 ([7]; Water/DMSO (0.91/0.09 v/v)): 144.7

2-Methyl-3-(3-bromo-benzyl)-4a,8a-dihydro-[1,4]naphthoquinone [Compound 25b]
IC50 [3, 13]: 128 nM | Tox/MRC-5 [2]: 20.8 µM

CC(=O)Nc1ccccc1CC1=C(C)C(=O)c2ccccc2C1=O [Compound 22, N-(2-((3-Methyl-1,4-dioxo-1,4-dihydronaphthalen-2-yl)methyl)phenyl)acetamide]
IC50 [3, 15]: 282 ± 86 nM | Tox/MRC-5 [2]: 4.4 µM | melting point: 218 to 220 °C

— publication PMC6155649 (Molecules : A Journal of Synthetic Chemistry and Natural …, 2017)
